Assay results as given in ChEMBL document CHEMBL3286183, “Minor diterpene glycosides from the leaves of Stevia rebaudiana” (J Nat Prod, 2014).
Activity calls are given as the source filed them.

How the values were obtained:
Assay type in all cases: functional, organism-based
Escherichia coli = experiment: Antimicrobial activity against Escherichia coli ATCC 35218
Aspergillus fumigatus = experiment: Antimicrobial activity against Aspergillus fumigatus ATCC 90906
Candida albicans = experiment: Antimicrobial activity against Candida albicans ATCC 90028
Pseudomonas aeruginosa = experiment: Antimicrobial activity against Pseudomonas aeruginosa ATCC 27853
Staphylococcus aureus = experiment: Antimicrobial activity against methicillin-resistant Staphylococcus aureus ATCC 43300
Cryptococcus neoformans = experiment: Antimicrobial activity against Cryptococcus neoformans ATCC 90113
[1] = test system: Mycobacterium intracellulare; experiment: Antimicrobial activity against Mycobacterium intracellulare ATCC 23068
Plasmodium falciparum [2] = experiment: Antimalarial activity against chloroquine-resistant Plasmodium falciparum W2
Plasmodium falciparum [3] = experiment: Antimalarial activity against chloroquine-sensitive Plasmodium falciparum D6

Measured: Activity

C=C1C[C@@]23CC[C@H]4[C@@](C)(CCC[C@@]4(C)C(=O)O[C@@H]4O[C@H](CO)[C@@H](O)[C@H](O)[C@H]4O)[C@@H]2CC[C@]1(O[C@@H]1O[C@H](C)[C@@H](O)[C@H](O)[C@@H]1O[C@@H]1O[C@H](CO)[C@@H](O)[C@H](O)[C@H]1O)C3
not listed: Plasmodium falciparum [2] | Plasmodium falciparum [3]
inactive: all other assays above

C=C1C[C@@]23CC[C@H]4[C@@](C)(CCC[C@@]4(C)C(=O)O[C@@H]4O[C@H](CO)[C@@H](O)[C@H](O)[C@H]4O)[C@@H]2CC[C@]1(O[C@@H]1O[C@H](CO)[C@@H](O)[C@H](O)[C@H]1O[C@@H]1O[C@H](CO)[C@@H](O)[C@H](O)[C@H]1O)C3
inactive: all assays above

C=C1C[C@@]23CC[C@H]4[C@@](C)(CCC[C@@]4(C)C(=O)O[C@@H]4O[C@H](CO)[C@@H](O)[C@H](O)[C@H]4O)[C@@H]2CC[C@]1(O[C@@H]1O[C@H](CO)[C@@H](O)[C@H](O)[C@H]1O[C@@H]1O[C@H](CO)[C@@H](O)[C@H](O[C@@H]2O[C@H](CO)[C@@H](O)[C@H](O)[C@H]2O)[C@H]1O)C3
not listed: Plasmodium falciparum [2] | Plasmodium falciparum [3]
inactive: all other assays above

C=C1C[C@@]23CC[C@H]4[C@@](C)(CCC[C@@]4(C)C(=O)O)[C@@H]2CC[C@]1(O[C@@H]1O[C@@H](CO)[C@@H](O[C@@H]2O[C@@H](CO)[C@@H](O)[C@H](O)[C@@H]2O)[C@H](O)[C@@H]1O[C@@H]1O[C@@H](CO)[C@@H](O)[C@H](O)[C@@H]1O)C3
not listed: Plasmodium falciparum [2] | Plasmodium falciparum [3]
inactive: all other assays above

C=C1C[C@@]23CC[C@H]4[C@@](C)(CCC[C@@]4(C)C(=O)O[C@@H]4O[C@H](CO)[C@@H](O)[C@H](O)[C@H]4O[C@@H]4O[C@H](CO)[C@@H](O)[C@H](O)[C@H]4O)[C@@H]2CC[C@]1(O[C@@H]1O[C@H](CO)[C@@H](O)[C@H](O)[C@H]1O)C3
inactive: all assays above

C=C1C[C@@]23CC[C@H]4[C@@](C)(CCC[C@@]4(C)C(=O)O[C@@H]4O[C@H](CO)[C@@H](O)[C@H](O)[C@H]4O)[C@@H]2CC[C@]1(O[C@@H]1O[C@H](C)[C@@H](O)[C@H](O)[C@@H]1O[C@@H]1O[C@H](CO)[C@@H](O)[C@H](O[C@@H]2O[C@H](CO)[C@@H](O)[C@H](O)[C@H]2O)[C@H]1O)C3
not listed: Plasmodium falciparum [2] | Plasmodium falciparum [3]
inactive: all other assays above

C=C1C[C@@]23CC[C@H]4[C@@](C)(CCC[C@@]4(C)C(=O)O[C@@H]4O[C@H](CO)[C@@H](O)[C@H](O)[C@H]4O[C@@H]4O[C@H](CO)[C@@H](O)[C@H](O)[C@H]4O)[C@@H]2CC[C@]1(O[C@@H]1O[C@H](CO)[C@@H](O)[C@H](O[C@@H]2O[C@H](CO)[C@@H](O)[C@H](O)[C@H]2O)[C@H]1O[C@@H]1O[C@H](CO)[C@@H](O)[C@H](O)[C@H]1O)C3
not listed: Plasmodium falciparum [2] | Plasmodium falciparum [3]
inactive: all other assays above

C=C1C[C@@]23CC[C@H]4[C@@](C)(CCC[C@@]4(C)C(=O)O[C@@H]4O[C@H](CO)[C@@H](O)[C@H](O)[C@H]4O)[C@@H]2CC[C@]1(O[C@@H]1O[C@H](CO)[C@@H](O)[C@H](O[C@@H]2OC[C@@H](O)[C@H](O)[C@H]2O)[C@H]1O[C@@H]1O[C@H](CO)[C@@H](O)[C@H](O)[C@H]1O)C3
not listed: Plasmodium falciparum [2] | Plasmodium falciparum [3]
inactive: all other assays above
